Measurements reported in ChEMBL document CHEMBL1149654, “Caprolactams as potent CGRP receptor antagonists for the treatment of migraine” (Bioorg Med Chem Lett, 2007).

Key:
[1] = biological target: T1, Calcitonin-gene-related peptide receptor, CALCRL/RAMP1 (Homo sapiens, UniProt O60894+Q16602); assay: Antagonist activity at human CGRP receptor in E10 cells assessed as inhibition of cAMP production; assay type: functional, cell-based
[2] = biological target: T1, Calcitonin-gene-related peptide receptor, CALCRL/RAMP1; assay: Displacement of [125I]CGRP from human CL receptor in RAMP1 membranes; assay type: cell membranes
[3] = biological target: T1, Calcitonin-gene-related peptide receptor, CALCRL/RAMP1; assay: Displacement of [125I]CGRP from human CL receptor in RAMP1 membranes at 100 uM; assay type: cell membranes
[4] = Bioavailability in rat at 10 mg/kg, po; assay type: ADME, organism-based; conditions: in vivo
[5] = Clearance in rat at 10 mg/kg, po; assay type: ADME, organism-based; parameters: dose 10 mg/kg, route oral; conditions: in vivo

T1 sequence (O60894 whole entry): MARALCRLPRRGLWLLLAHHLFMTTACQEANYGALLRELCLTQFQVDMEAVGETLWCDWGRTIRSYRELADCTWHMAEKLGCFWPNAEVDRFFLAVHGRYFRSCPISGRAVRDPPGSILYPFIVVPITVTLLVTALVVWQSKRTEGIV
T1 sequence (Q16602 whole entry): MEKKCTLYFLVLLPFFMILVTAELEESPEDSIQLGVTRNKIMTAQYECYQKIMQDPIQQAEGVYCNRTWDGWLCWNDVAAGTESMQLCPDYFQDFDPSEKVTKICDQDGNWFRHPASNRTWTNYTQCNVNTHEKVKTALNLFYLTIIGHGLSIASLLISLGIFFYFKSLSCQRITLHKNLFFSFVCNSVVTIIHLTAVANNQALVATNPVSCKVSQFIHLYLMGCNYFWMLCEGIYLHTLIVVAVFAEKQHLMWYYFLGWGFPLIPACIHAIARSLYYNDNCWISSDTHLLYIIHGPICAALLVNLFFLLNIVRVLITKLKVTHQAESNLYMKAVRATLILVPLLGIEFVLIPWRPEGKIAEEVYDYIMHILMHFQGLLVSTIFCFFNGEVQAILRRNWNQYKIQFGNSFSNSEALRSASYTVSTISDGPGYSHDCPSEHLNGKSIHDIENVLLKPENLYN

SMILES | IC50 [1] [nM] | Ki [2] [nM] | Activity [3] [%] | bioavailability [4] [%] | CL/F [5] [mL/min/kg]
O=C(NC1CCC(c2ccccc2)CN(CC2CC2)C1=O)N1CCC(N2Cc3ccccc3NC2=O)CC1 (racemic; 18) | 54 | 31 |  |  | 
O=C(N[C@@H]1CCCN(Cc2ccccc2)C1=O)N1CCC(N2Cc3ccccc3NC2=O)CC1 |  |  | 46 |  | 
CC(C)(C)OC(=O)CN1C(=O)C(NC(=O)N2CCC(N3Cc4ccccc4NC3=O)CC2)CCCC1c1ccccc1 (racemic; 12) |  | 17000 |  |  | 
CC(C)(C)OC(=O)CN1C(=O)C(NC(=O)N2CCC(N3Cc4ccccc4NC3=O)CC2)CCCC1c1ccccc1 (racemic; 13) | 2120 | 1990 |  |  | 
O=C(N[C@@H]1CC[C@@H](c2ccccc2)CN(CC2CC2)C1=O)N1CCC(N2CCc3ccccc3NC2=O)CC1 | 32 | 29 |  |  | 
CC(C)(C)OC(=O)CN1C(=O)[C@@H](NC(=O)N2CCC(N3Cc4ccccc4NC3=O)CC2)CCC[C@H]1c1ccccc1 | 471 | > 10000 |  |  | 
O=C(N[C@H]1CC[C@H](c2ccccc2)CN(CC2CC2)C1=O)N1CCC(N2Cc3ccccc3NC2=O)CC1 | 6630 | 5830 |  |  | 
O=C(NC1CC(c2ccccc2)CCN(CC2CC2)C1=O)N1CCC(n2nc(-c3ccccc3)[nH]c2=O)CC1 (racemic; 28) | 488 | 266 |  |  | 
O=C(N[C@@H]1CC[C@@H](c2ccccc2)CN(CC2CC2)C1=O)N1CCC(n2nc(-c3ccccc3)[nH]c2=O)CC1 | 45 | 29 |  |  | 
O=C(NC1CC(c2ccccc2)CCN(CC2CC2)C1=O)N1CCC(n2nc(-c3ccccc3)[nH]c2=O)CC1 (racemic; 27) | 3820 | 544 |  |  | 
O=C(NC1CCC(c2ccccc2)CN(CC2CC2)C1=O)N1CCC(N2Cc3ccccc3NC2=O)CC1 (racemic; 17) | 778 | 695 |  |  | 
CC(C)N1C(=O)C(NC(=O)N2CCC(N3Cc4ccccc4NC3=O)CC2)CCc2ccccc21 (configuration not stated) | 3100 | 3700 |  |  | 
O=C(N[C@@H]1CCCCN(Cc2ccccc2)C1=O)N1CCC(N2Cc3ccccc3NC2=O)CC1 |  | 1800 |  |  | 
CC(C)(C)OC(=O)CN1C(=O)[C@H](NC(=O)N2CCC(N3Cc4ccccc4NC3=O)CC2)CCC[C@@H]1c1ccccc1 |  | 934 |  |  | 
O=C(N[C@@H]1CC[C@@H](c2ccccc2)CN(CC2CC2)C1=O)N1CCC(n2cc(-c3ccccc3)[nH]c2=O)CC1 | 4 | 2 |  | 27 | 36
O=C(N[C@@H]1CCCCN(CC2CC2)C1=O)N1CCC(N2Cc3ccccc3NC2=O)CC1 | 2400 | 7800 |  |  | 
O=C(NC1CC(c2ccccc2)CCN(CC2CC2)C1=O)N1CCC(n2cc(-c3ccccc3)[nH]c2=O)CC1 (racemic; 30) | 141 | 17 |  |  | 
CC(C)N1C(=O)[C@H](NC(=O)N2CCC(N3Cc4ccccc4NC3=O)CC2)N=C(c2ccccc2)c2ccccc21 | 65 | 55 |  |  | 
O=C(N[C@H]1CCCCN(Cc2ccccc2)C1=O)N1CCC(N2Cc3ccccc3NC2=O)CC1 |  | 11100 |  |  | 
O=C(N[C@@H]1CCN(Cc2ccccc2)C1=O)N1CCC(N2Cc3ccccc3NC2=O)CC1 |  |  | 63 |  | 
O=C(N[C@@H]1CC[C@@H](c2ccccc2)CN(CC2CC2)C1=O)N1CCC(N2Cc3ccccc3NC2=O)CC1 | 36 | 25 |  |  | 
O=C(N[C@@H]1CCC[C@H](c2ccccc2)N(CC2CC2)C1=O)N1CCC(N2Cc3ccccc3NC2=O)CC1 | 408 | 689 |  |  | 
O=C(NC1CC(c2ccccc2)CCN(CC2CC2)C1=O)N1CCC(n2cc(-c3ccccc3)[nH]c2=O)CC1 (racemic; 29) | 133 | 35 |  |  | 
